This is an account of results in patent publication US20090030037A1, “Sustained Release Formulation and Dosing Schedules of Leukotriene Synthesis Inhibitor for Human Therapy” (deCODE Genetics ehf., priority 2005, published 2009).

One data set concerns Amyloid A. The data set can be described thus: Study DG-031-201: amyloid A in serum. The data set is classed as in vivo, human. Conditions: difference visit 2 to 5; 500 and 750 mg/day vs placebo. The protocol: Genet. 2004). Apart from FLAP, allele A of the SNP SG12S25 in the LTA4 hydrolase gene, another gene in the LT pathway, is also associated with MI, as described in PCT application no. PCT/US03/32556 and PCT/US04/30582 incorporated by reference.
Patients who met the study eligibility criteria were enrolled and randomized into 3 different dose-level groups: (1) 64 patients on 250 mg/day therapy with DG-031 (250 mg q.d.), vs placebo; (2) 64 patients on 500 mg/day therapy with DG-031 (250 mg b.i.d.) vs placebo; and (3) 63 patients on 750 mg/day therapy with DG-031 (250 mg t.i.d.) vs placebo. […] All patients received 3 tablets per day. Treatment periods, 4 weeks in duration each, were separated by a 2-week washout period. The placebo tablets were identical in shape, color, form and taste to the active tablets except that they contained no active drug ingredients. Treatment with DG-031 or placebo was in addition to the subject's standard care, including all medications and treatment plan as prescribed by the subject's cardiologist prior to enrolment. […]
All data were analyzed according to a pre-established statistical analysis plan (SAP) and by intention-to-treat (ITT). […] The difference between DG-031 and placebo treatment was the primary outcome, assessed separately for each of the biomarkers. […]

A further data set relates to LTB4. In words: Study DG-031-204: serum LTB4. In kind it is in vivo, human. As to conditions: after 4 weeks. The protocol:
(§1) An additional single site, open label study was carried out to obtain biomarker and safety data on additional DG-031 doses (i.e., 1000 mg and 1500 mg). This study examined the safety, tolerability and dose-related effects of DG-031 on inflammatory biomarkers including: LTB4, hsCRP, and MPO. A total of 119 patients with a prior history of CAD and MI were randomized to receive either 1000 mg DG-031 (500 mg BID) or 1500 mg DG-031 (500 mg TID) daily for 4-6 weeks. Treatment with DG-031 in addition to the subject's standard care, medication, and treatment, was prescribed by the patient's cardiologist. A majority of the subjects received statin therapy before, during and after the study. Follow-up assessments were performed 2 weeks after the end of study drug administration.
The biomarkers were analyzed as described in Example 1. Statistical analysis of the data was carried out using a one-sample t-test on change from baseline with a two-sided nominal significance level of 0.050. […]
Serum was collected weekly for determination of LTB4 concentration in response to the treatment with DG-031. […] Stimulated LTB4 effects measured in study DG-031-204, as shown in the raw data set out in Table 12, appear consistent with projections from the exposure-response analysis based on data from studies DG-031-201 and DG-031-203. […]

Data set [1] in a line: Study DG-031-204: creatine kinase. In kind it is in vivo, human. Conditions: 500 mg BID or TID. As to the method: as §1
Liver function tests (AST, ALT, GGT) were assessed weekly during study drug administration and two weeks after dosing. […] Serum creatinine (Cr) was measured weekly during study drug administration and two weeks after dosing. In both the 500 mg BID and 500 mg TID treatment groups, mean serum Cr concentrations increased 4-5% relative to baseline levels. At the 2-week follow up visit, mean serum Cr returned to baseline in the cohort treated for 4 weeks, but remained elevated in the group treated for 6 weeks. Creatine kinase (CK) measurements were obtained weekly during study drug administration and two weeks after dosing.

The conditions of data set [2]: healthy volunteers, total daily dose 100-1000 mg, less than 14 days; cited from earlier work.

Turning to `O=C(O)[C@@H](c1ccc(OCc2ccc3ccccc3n2)cc1)C1CCCC1` [DG-031, (R)-(+)-alpha-cyclopentyl-4-(2-quinolinylmethoxy)-Benzeneacetic acid], in the data set with Amyloid A, the “Carry-over effect, Amyloid A” value is −0.14. The “Serum LTB4 (% change from baseline)” value in the data set on LTB4 (1000 mg (500 mg BID)) is recorded as −73%; with LTB4 (1500 mg (500 mg TID)) it was −50%. In addition, the “Mean CK concentrations” value in data set [1] is “No adverse trends”. Moreover, in data set [2], the Safety and tolerability result was “safe and well tolerated”.
